Data as given in ChEMBL document CHEMBL1201862, “PubChem BioAssay data set” (2004).
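Grown in 96-well plates, cells were treated for 48 hours with each compound at five concentrations. Insufficient inhibition: endpoint recorded as highest concentration tested. At the GI50, growth is halved.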 Calls of active or inactive are those of the source. No stated cut-off is given here; in the data, active = GI50 up to about 1.1 µM and inactive = higher.

How the values were obtained:
Assay in all cases: DTP human tumour cell line panel, 48 h
786-0 = tested on: 786-0
A498 = tested on: A498
A549 = tested on: A549
ACHN = tested on: ACHN
CAKI-1 = tested on: CAKI-1
CCRF-CEM = tested on: CCRF-CEM
COLO 205 = tested on: COLO 205
DLD-1 = tested on: DLD-1
DMS-114 = tested on: DMS-114
DMS-273 = tested on: DMS-273
EKVX = tested on: EKVX
HCC 2998 = tested on: HCC 2998
HCT-116 = tested on: HCT-116
HCT-15 = tested on: HCT-15
HL-60 = tested on: HL-60
HOP-18 = tested on: HOP-18
HOP-62 = tested on: HOP-62
HT-29 = tested on: HT-29
IGROV-1 = tested on: IGROV-1
K562 = tested on: K562
KM-20L2 = tested on: KM-20L2
KM12 = tested on: KM12
LOX IMVI = tested on: LOX IMVI
LXFL 529 = tested on: LXFL 529
M14 = tested on: M14
M19-MEL = tested on: M19-MEL
MOLT-4 = tested on: MOLT-4
Malme-3M = tested on: Malme-3M
NCI-H226 = tested on: NCI-H226
NCI-H23 = tested on: NCI-H23
NCI-H460 = tested on: NCI-H460
NCI-H522 = tested on: NCI-H522
OVCAR-3 = tested on: OVCAR-3
OVCAR-4 = tested on: OVCAR-4
OVCAR-5 = tested on: OVCAR-5
OVCAR-8 = tested on: OVCAR-8
RXF 393 = tested on: RXF 393
SF-268 = tested on: SF-268
SF-295 = tested on: SF-295
SF-539 = tested on: SF-539
SK-MEL-28 = tested on: SK-MEL-28
SK-MEL-2 = tested on: SK-MEL-2
SK-MEL-5 = tested on: SK-MEL-5
SK-OV-3 = tested on: SK-OV-3
SN12C = tested on: SN12C
SNB-19 = tested on: SNB-19
SNB-75 = tested on: SNB-75
SNB-78 = tested on: SNB-78
SW-620 = tested on: SW-620
TK-10 = tested on: TK-10
U-251 = tested on: U-251
UACC-257 = tested on: UACC-257
UACC-62 = tested on: UACC-62
UO-31 = tested on: UO-31
XF498 = tested on: XF498
HOP-92 = tested on: HOP-92
SR = tested on: SR

Measured: GI50

CC(C)=CC(=O)N(C)C1C2CN3CCC(O2)C13 (centres undefined)
> 100 µM: HCT-15
inactive: 786-0 > 100 µM | A498 > 100 µM | A549 > 100 µM | ACHN > 100 µM | CAKI-1 > 100 µM | CCRF-CEM > 100 µM | COLO 205 > 100 µM | DLD-1 > 100 µM | DMS-114 > 100 µM | DMS-273 > 100 µM | EKVX > 100 µM | HCC 2998 > 100 µM | HCT-116 > 100 µM | HL-60 > 100 µM | HOP-18 > 100 µM | HOP-62 > 100 µM | HT-29 > 100 µM | IGROV-1 > 100 µM | K562 > 100 µM | KM-20L2 > 100 µM | KM12 > 100 µM | LOX IMVI > 100 µM | LXFL 529 > 100 µM | M14 > 100 µM | M19-MEL > 100 µM | MOLT-4 > 100 µM | Malme-3M > 100 µM | NCI-H226 > 100 µM | NCI-H23 > 100 µM | NCI-H460 > 100 µM | NCI-H522 > 100 µM | OVCAR-3 > 100 µM | OVCAR-4 > 100 µM | OVCAR-5 > 100 µM | OVCAR-8 > 100 µM | RXF 393 > 100 µM | SF-268 > 100 µM | SF-295 > 100 µM | SF-539 > 100 µM | SK-MEL-28 > 100 µM | SK-MEL-2 > 100 µM | SK-MEL-5 > 100 µM | SK-OV-3 > 100 µM | SN12C > 100 µM | SNB-19 > 100 µM | SNB-75 > 100 µM | SNB-78 > 100 µM | SW-620 > 100 µM | TK-10 > 100 µM | U-251 > 100 µM | UACC-257 > 100 µM | UACC-62 > 100 µM | UO-31 > 100 µM | XF498 > 100 µM

COc1cc(C2c3cc4c(cc3[C@@H](OCCN)[C@H]3COC(=O)C23)OCO4)cc(OC)c1O (some centres undefined)
inactive: COLO 205 1.7 µM | DLD-1 1.32 µM | HOP-18 1.77 µM | IGROV-1 1.15 µM | OVCAR-3 1.27 µM | OVCAR-4 2.05 µM | SNB-78 3.52 µM | TK-10 2.14 µM | UACC-257 1.24 µM | UO-31 4.09 µM
active: 786-0 0.082 µM | A498 0.212 µM | A549 0.0518 µM | ACHN 0.181 µM | CAKI-1 0.135 µM | CCRF-CEM 0.0316 µM | DMS-114 0.0295 µM | EKVX 0.413 µM | HCC 2998 0.671 µM | HCT-116 0.995 µM | HL-60 < 0.01 µM | HOP-62 0.069 µM | HOP-92 0.082 µM | HT-29 0.7 µM | K562 0.181 µM | KM-20L2 0.543 µM | KM12 0.491 µM | LOX IMVI 0.0434 µM | LXFL 529 0.776 µM | M14 0.383 µM | M19-MEL 0.196 µM | MOLT-4 < 0.01 µM | Malme-3M 0.136 µM | NCI-H226 0.0873 µM | NCI-H23 0.136 µM | NCI-H460 < 0.01 µM | NCI-H522 0.155 µM | OVCAR-5 0.644 µM | OVCAR-8 0.55 µM | RXF 393 0.44 µM | SF-268 0.159 µM | SF-295 0.108 µM | SF-539 0.105 µM | SK-MEL-28 0.518 µM | SK-MEL-2 0.322 µM | SK-MEL-5 0.2 µM | SK-OV-3 0.129 µM | SN12C 0.107 µM | SNB-19 0.104 µM | SNB-75 0.238 µM | SR < 0.0191 µM | SW-620 0.179 µM | U-251 0.0405 µM | UACC-62 0.0843 µM | XF498 < 0.0347 µM
2.87 µM: HCT-15

ClCCCCOC1CCCCO1 (centres undefined)
> 100 µM: HCT-15
inactive: 786-0 > 100 µM | A498 > 100 µM | A549 > 100 µM | ACHN > 100 µM | CAKI-1 > 100 µM | COLO 205 > 100 µM | DLD-1 > 100 µM | DMS-114 > 100 µM | DMS-273 > 100 µM | EKVX > 100 µM | HCC 2998 > 100 µM | HCT-116 > 100 µM | HL-60 > 100 µM | HOP-18 > 100 µM | HOP-62 > 100 µM | HOP-92 > 100 µM | HT-29 > 100 µM | IGROV-1 > 100 µM | KM-20L2 > 100 µM | KM12 > 100 µM | LXFL 529 > 100 µM | M14 > 100 µM | M19-MEL > 100 µM | MOLT-4 > 100 µM | Malme-3M > 100 µM | NCI-H226 > 100 µM | NCI-H23 > 100 µM | NCI-H460 > 100 µM | NCI-H522 > 100 µM | OVCAR-3 > 100 µM | OVCAR-4 > 100 µM | OVCAR-5 > 100 µM | OVCAR-8 > 100 µM | RXF 393 > 100 µM | SF-268 > 100 µM | SF-295 > 100 µM | SF-539 > 100 µM | SK-MEL-28 > 100 µM | SK-MEL-2 > 100 µM | SK-MEL-5 > 100 µM | SK-OV-3 > 100 µM | SN12C > 100 µM | SNB-19 > 100 µM | SNB-75 > 100 µM | SNB-78 > 100 µM | SW-620 > 100 µM | TK-10 > 100 µM | U-251 > 100 µM | UACC-257 > 100 µM | UACC-62 > 100 µM | UO-31 > 100 µM | XF498 > 100 µM

S=C(N/N=C/c1ccco1)NC12CC3CC(CC(C3)C1)C2
47.4 µM: HCT-15
inactive: 786-0 62.7 µM | A498 > 100 µM | A549 > 100 µM | ACHN > 100 µM | CAKI-1 > 100 µM | CCRF-CEM 54.2 µM | COLO 205 15.3 µM | DLD-1 > 100 µM | DMS-114 37.3 µM | DMS-273 6.05 µM | EKVX > 100 µM | HCC 2998 74.8 µM | HCT-116 > 100 µM | HOP-18 > 100 µM | HOP-62 > 100 µM | HOP-92 47 µM | HT-29 31.4 µM | IGROV-1 > 100 µM | K562 43.8 µM | KM-20L2 42.8 µM | KM12 > 100 µM | LOX IMVI 86.5 µM | LXFL 529 52.2 µM | M14 > 100 µM | M19-MEL > 100 µM | MOLT-4 39.4 µM | Malme-3M > 100 µM | NCI-H226 > 100 µM | NCI-H23 > 100 µM | NCI-H460 66.2 µM | NCI-H522 36.7 µM | OVCAR-3 84.1 µM | OVCAR-4 65.3 µM | OVCAR-5 > 100 µM | OVCAR-8 > 100 µM | RXF 393 > 100 µM | SF-268 > 100 µM | SF-295 > 100 µM | SF-539 > 100 µM | SK-MEL-28 > 100 µM | SK-MEL-2 > 100 µM | SK-MEL-5 73.8 µM | SK-OV-3 > 100 µM | SN12C > 100 µM | SNB-19 > 100 µM | SNB-75 83.8 µM | SNB-78 > 100 µM | SW-620 > 100 µM | TK-10 49.5 µM | U-251 73.8 µM | UACC-257 32.2 µM | UACC-62 29.9 µM | UO-31 > 100 µM | XF498 > 100 µM
